Several values for one entry are separate records, joined by “and”; a condition that tells them apart may be missing. Identical values can stand only once. Inconclusive results and toxic doses are left out. How the source made its calls: active means survival T/C of 150% or more; inactive means T/C below 125% in these data.
System: P388 leukemia ip, CD2F1 mice, survival T/C
Assay: NCI In Vivo Anticancer Drug Screen. Data for tumor model P388 Leukemia (intraperitoneal) in CD2F1 (CDF1) mice
Conditions: endpoint: median survival time, higher = longer survival
In short: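 Mice carrying the transplanted tumor received test compound or vehicle. Survival was recorded in each group, and the value is the treated-group measurement divided by that of the vehicle-treated control group.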

[1] = dose: 50.0 mg/kg/injection, schedule: Q01DX005 (ip), vehicle: saline with Tween-80
[2] = dose: 100.0 mg/kg/injection, schedule: Q01DX005 (ip), vehicle: saline with Tween-80
[3] = dose: 50.0 mg/kg/injection, schedule: Q01DX009 (ip), vehicle: saline with Tween-80
[4] = dose: 100.0 mg/kg/injection, schedule: Q01DX009 (ip), vehicle: saline with Tween-80
[5] = dose: 50.0 mg/kg/injection, schedule: Q01DX005 (ip), vehicle: Klucel (hydroxypropylcellulose) (HPC)
[6] = dose: 100.0 mg/kg/injection, schedule: Q01DX005 (ip), vehicle: Klucel (hydroxypropylcellulose) (HPC)
[7] = dose: 200.0 mg/kg/injection, schedule: Q01DX005 (ip), vehicle: Klucel (hydroxypropylcellulose) (HPC)
[8] = dose: 60.0 mg/kg/injection, schedule: Q01DX005 (ip), vehicle: saline with Tween-80
[9] = dose: 120.0 mg/kg/injection, schedule: Q01DX005 (ip), vehicle: saline with Tween-80
[10] = dose: 240.0 mg/kg/injection, schedule: Q01DX005 (ip), vehicle: saline with Tween-80
[11] = dose: 50.0 mg/kg/injection, schedule: Q01DX009 (ip), vehicle: saline
[12] = dose: 100.0 mg/kg/injection, schedule: Q01DX009 (ip), vehicle: saline
[13] = dose: 50.0 mg/kg/injection, schedule: Q01DX009 (ip), vehicle: Klucel (hydroxypropylcellulose) (HPC)
[14] = dose: 100.0 mg/kg/injection, schedule: Q01DX009 (ip), vehicle: Klucel (hydroxypropylcellulose) (HPC)
[15] = dose: 200.0 mg/kg/injection, schedule: Q01DX009 (ip), vehicle: Klucel (hydroxypropylcellulose) (HPC)
[16] = dose: 12.5 mg/kg/injection, schedule: Q01DX009 (ip), vehicle: saline with Tween-80

Measured: T/C

COc1ccc2c(NCCCCCCCCNc3c4ccc(Cl)cc4nc4cc(OC)ccc34)c3ccc(Cl)cc3nc2c1
inactive: dose: 0.63 mg/kg/injection, schedule: Q01DX009 (ip), vehicle: other 117 % of control | dose: 1.25 mg/kg/injection, schedule: Q01DX009 (ip), vehicle: other 100 % of control | dose: 2.5 mg/kg/injection, schedule: Q01DX009 (ip), vehicle: other 96 % of control | dose: 5.0 mg/kg/injection, schedule: Q01DX009 (ip), vehicle: other 105 % of control | dose: 10.0 mg/kg/injection, schedule: Q01DX009 (ip), vehicle: other 100 % of control | dose: 20.0 mg/kg/injection, schedule: Q01DX009 (ip), vehicle: other 88 % of control

COc1ccc2c(c1)CCC1C2=CCC2C(=O)OC(=O)C21C (stereo unspecified)
inactive: [1] 103 % of control | [2] 108 % of control

CCN(CC)C(Cc1ccccc1)=NC(C)(C)C
inactive: [3] 94 % of control | [4] 88 % of control

O=C1C=CC(=O)C(c2ccccc2)=C1
inactive: [5] 100 % of control | [6] 105 % of control | [7] 112 % of control

CCc1cccc(C)c1NC(=O)C(=O)CC(=O)CS(=O)(=O)c1ccc(C)cc1
inactive: [8] 109 % of control | [9] 111 % of control | [10] 104 % of control

CC(Nc1cccc([N+](=O)[O-])c1)S(=O)(=O)O (stereo unspecified)
inactive: [11] 97 % of control | [12] 100 % of control | dose: 200.0 mg/kg/injection, schedule: Q01DX009 (ip), vehicle: saline 97 % of control

O=C(c1ccccc1)C1C(=O)c2ccccc2C1=O
inactive: dose: 60.0 mg/kg/injection, schedule: Q01DX005 (ip), vehicle: saline 95 % of control | dose: 120.0 mg/kg/injection, schedule: Q01DX005 (ip), vehicle: saline 99 % of control | dose: 240.0 mg/kg/injection, schedule: Q01DX005 (ip), vehicle: saline 95 % of control

Cc1cc(OC(=O)N(C)C)nc(SCC(=O)c2ccc(Cl)cc2)n1
inactive: [13] 99 % of control | [14] 103 % of control | [15] 107 % of control

CC1(C)N=C(N)N=C(N)N1c1ccc(Cl)cc1Cl
inactive: dose: 12.0 mg/kg/injection, schedule: Q01DX005 (ip), vehicle: saline 102 % of control | dose: 25.0 mg/kg/injection, schedule: Q01DX005 (ip), vehicle: saline 100 % of control | dose: 50.0 mg/kg/injection, schedule: Q01DX005 (ip), vehicle: saline 104 % of control and 98 % of control

COc1ccc2c(c1OC)C(O)(Cc1ccccc1)OC2C1c2c(cc3c(c2OC)OCO3)CCN1C (stereo unspecified)
inactive: [5] 106 % of control | [6] 104 % of control | [7] 95 % of control

CCC1(CC)C(=O)N(C)P(=O)(Oc2ccccc2)N(C)C1=O
inactive: dose: 100.0 mg/kg/injection, schedule: Q04DX002 (ip), vehicle: saline 100 % of control | dose: 200.0 mg/kg/injection, schedule: Q04DX002 (ip), vehicle: saline 103 % of control | dose: 400.0 mg/kg/injection, schedule: Q04DX002 (ip), vehicle: saline 101 % of control

Cc1ccccc1[B-]12OCC[N+]1(CNC(=O)C1=C(O)C3(O)C(=O)C4=C(O)c5c(O)cccc5C(C)(O)C4CC3C(N(C)C)C1=O)CCO2 (stereo unspecified)
inactive: [5] 110 % of control | [6] 115 % of control | [7] 108 % of control

CN(C)c1ccc(N=Nc2ccc3ccc4c(N=Nc5ccc(N(C)C)cc5)ccc5ccc2c3c54)cc1
inactive: [13] 106 % of control | [14] 103 % of control | [15] 103 % of control

CC(=O)NCC(C)C
inactive: dose: 100.0 mg/kg/injection, schedule: Q01DX001 (ip), vehicle: saline 100 % of control | dose: 200.0 mg/kg/injection, schedule: Q01DX001 (ip), vehicle: saline 100 % of control | dose: 400.0 mg/kg/injection, schedule: Q01DX001 (ip), vehicle: saline 100 % of control

N#Cc1c(-c2ccc(Cl)c(Cl)c2)c(-c2ccc(Cl)c(Cl)c2)nn(CCO)c1=O
inactive: dose: 25.0 mg/kg/injection, schedule: Q04DX002 (ip), vehicle: distilled water + Tween-80 95 % of control | dose: 50.0 mg/kg/injection, schedule: Q04DX002 (ip), vehicle: distilled water + Tween-80 93 % of control | dose: 100.0 mg/kg/injection, schedule: Q04DX002 (ip), vehicle: distilled water + Tween-80 93 % of control | dose: 200.0 mg/kg/injection, schedule: Q04DX002 (ip), vehicle: distilled water + Tween-80 87 % of control

CC1=CC(=O)C(Cc2ccccc2)(c2ccc(O)cc2O)N1 (stereo unspecified)
inactive: dose: 100.0 mg/kg/injection, schedule: Q01DX001 (ip), vehicle: Klucel (hydroxypropylcellulose) (HPC) 101 % of control | dose: 200.0 mg/kg/injection, schedule: Q01DX001 (ip), vehicle: Klucel (hydroxypropylcellulose) (HPC) 97 % of control | dose: 400.0 mg/kg/injection, schedule: Q01DX001 (ip), vehicle: Klucel (hydroxypropylcellulose) (HPC) 89 % of control

O=C1OC(c2ccc(Cl)cc2)Sc2ccccc21 (stereo unspecified)
inactive: dose: 25.0 mg/kg/injection, schedule: Q04DX003 (ip), vehicle: saline with Tween-80 102 % of control | dose: 50.0 mg/kg/injection, schedule: Q04DX003 (ip), vehicle: saline with Tween-80 93 % of control | dose: 100.0 mg/kg/injection, schedule: Q04DX003 (ip), vehicle: saline with Tween-80 102 % of control | dose: 200.0 mg/kg/injection, schedule: Q04DX003 (ip), vehicle: saline with Tween-80 100 % of control

CCB1OC2C(COC(C)=O)OC(OC(C)=O)C2O1 (stereo unspecified)
inactive: [1] 101 % of control | [2] 110 % of control | dose: 200.0 mg/kg/injection, schedule: Q01DX005 (ip), vehicle: saline with Tween-80 113 % of control

COc1cc2c(cc1OC)C(c1c(Cl)cccc1Cl)=NCC2
inactive: [5] 96 % of control | [6] 105 % of control | [7] 110 % of control

Nc1ncnc2c1ncn2C1(CO)OCC(O)C(O)C1O (stereo unspecified)
inactive: [5] 101 % of control | [6] 100 % of control | [7] 101 % of control

O=C(O)/C=C(/C(=O)O)C12CCN3CC4=CCOC5CC(=O)NC1C5C4CC32 (stereo unspecified)
inactive: dose: 60.0 mg/kg/injection, schedule: Q01DX005 (ip), vehicle: Klucel (hydroxypropylcellulose) (HPC) 97 % of control | dose: 120.0 mg/kg/injection, schedule: Q01DX005 (ip), vehicle: Klucel (hydroxypropylcellulose) (HPC) 106 % of control | dose: 240.0 mg/kg/injection, schedule: Q01DX005 (ip), vehicle: Klucel (hydroxypropylcellulose) (HPC) 110 % of control

COc1ccc(OC)c2c(Cl)cc(N(C)C)nc12
inactive: [8] 99 % of control | [9] 97 % of control

C=C(C)C(=O)Nc1ccc(NC(C)C)cc1
inactive: [16] 115 % of control | dose: 12.5 mg/kg/injection, schedule: Q01DX009 (ip), vehicle: saline 105 % of control | dose: 25.0 mg/kg/injection, schedule: Q01DX009 (ip), vehicle: saline with Tween-80 108 % of control | dose: 25.0 mg/kg/injection, schedule: Q01DX009 (ip), vehicle: saline 97 % of control | [3] 93 % of control and 96 % of control | [11] 90 % of control | [12] 102 % of control

Nc1ncnc2c1c(-c1ccccc1)cn2-c1ccc(Br)cc1
inactive: [8] 108 % of control | [9] 100 % of control | [10] 96 % of control

O=C(c1ccccc1)c1c(-c2ccccc2)c(=O)n2c(sc3ccccc32)c1C(=O)c1ccccc1
inactive: dose: 100.0 mg/kg/injection, schedule: Q01DX001 (ip), vehicle: saline with Tween-80 93 % of control | dose: 200.0 mg/kg/injection, schedule: Q01DX001 (ip), vehicle: saline with Tween-80 100 % of control | dose: 400.0 mg/kg/injection, schedule: Q01DX001 (ip), vehicle: saline with Tween-80 109 % of control

COc1cc2c(cc1OC)C(Cc1ccccc1NC(=O)c1ccc(C(=O)Nc3ccccc3CC3c4cc(OC)c(OC)cc4CCN3C)cc1)N(C)CC2 (stereo unspecified)
inactive: [8] 89 % of control | [9] 88 % of control | [10] 94 % of control

O=[N+]([O-])c1ccc(-c2nc3ncncc3[nH]2)cc1
inactive: dose: 6.25 mg/kg/injection, schedule: Q01DX009 (ip), vehicle: Klucel (hydroxypropylcellulose) (HPC) 107 % of control | dose: 12.5 mg/kg/injection, schedule: Q01DX009 (ip), vehicle: Klucel (hydroxypropylcellulose) (HPC) 99 % of control

CN(C)CCNc1ccc([N+](=O)[O-])c2sc3ccccc3c(=O)c12
inactive: [16] 114 % of control | [4] 103 % of control and 89 % of control

O=C(CCl)N1CCN(c2ccccc2)CC1
inactive: [8] 97 % of control | [9] 100 % of control | [10] 97 % of control
